Patent publication EP2229935A1, “Peptide derivatives or pharmaceutically acceptable salts thereof, method for producing the same, use of said derivatives and pharmaceutical composition” (Nebolsin, Vladimir Evgenievich, priority 1997, dated 1999)

Experiments:
[1] = test system: Lewis pulmonary carcinoma (LLC); test: LLC metastasizing with surgical resection of the primary tumor node, alone and with Cyclophosphane; assay type: in vivo, C57BL/6 female mice; conditions: 96 hour interval, 100 µg/kg
Description: An important property of the compounds is their ability to manifest pharmacological activity on the model with resection of the primary tumor node and not to lower therapeutic efficacy of respective antitumor drugs. […] Surgical resection of the primary tumor node was performed by day 13 following tumor transplantation. The test anitumor compounds were administered according to two dosage regimens:
Dosage regimen 1 - animals were administered compound III from day 1 till day 13 of experiment at a dose 500 µg/kg (group 1); Cyclophosphane was administered intraperitoneally two times before operation with 96 hour interval at a dose 100 µg/kg (group 2); combined administration of compound III and Cyclophosphane was similar to administration of substances in groups 1 and 2 (group 3). Number of metastases was calculated by day 29 of experiment;
Dosage regimen 2 - animals were administered compound III from day 14 of experiment (commencement of administration 24 hours post operation) till day 28 (group 4); Cyclophosphane was administered twice post operation with 96 hour interval at a dose 100 µg/kg (group 5); combined administration of compound III and Cyclophosphane similar to administration of substances in groups 4 and 5 (group 6). Antimetastatic efficacy of the drugs was considered by day 29 of experiment.

[2] = test system: peripheral blood neutrophils; test: Activity of peripheral blood neutrophils in mice with LLC; assay type: in vivo, C57BL/6 female mice; conditions: Cyclophosphane 5 times 20.0 mg/kg (in 48 hours) for 10 days
Description: Experiments were carried out on C57BL/6 female mice with intramuscularly transplanted LLC carcinoma. Activity of neutrophils was measured by days 11 and 14.
• control - animals with LLC tumor, 10 animals; • animals with LLC tumor + compound III at a dose 500.0 µg/kg for 10 days. 8 animals; • animals with LLC tumor + Cyclophosphane 5 times at a dose 20.0 mg/kg (in 48 hours) for 10 days, 8 animals; • compound III and Cyclophosphane according to the above dosage regimen, 8 animals.
Experiment duration was 14 days.

[3] = regimen 1: intraperitoneally two times before operation
[4] = regimen 2: twice post operation

Compound: O=P1(N(CCCl)CCCl)NCCCO1 (stereo not drawn) [Cyclophosphane, reference compound]
- Mean number of metastases [1, 3]: 19.5 ± 5.1
- Metastasizing inhibition percent [1, 3]: 43.9%
- Metastasizing rate (%) [1, 3]: 100%
- Mean number of metastases [1, 4]: 18.0 ± 4.3
- Metastasizing inhibition percent [1, 4]: 51.5%
- Metastasizing rate (%) [1, 4]: 100%
- Percent of active neutrophils ([2]; Background): 21.5 ± 3.4%
- Percent of active neutrophils ([2]; day 11): 7.6 ± 2.0%
- Percent of active neutrophils ([2]; day 14): 20.6 ± 6.0%
